What is called IC50 is the concentration needed to halve the response being measured. Usually melting point stands for the temperature, or range, at which the solid turns liquid.

The values below come from paper PMC6099940, “Design, Synthesis and Biological Evaluation of Novel Phenylsulfonylurea Derivatives as PI3K/mTOR Dual Inhibitors” (Molecules : A Journal of Synthetic Chemistry and Natural …, 2018).

Some results are limits rather than exact numbers.

Series [1] concerns the target mTOR (Homo sapiens, UniProt P42345). Nature of the series: mTOR kinase assay (Kinase-Glo Luminescent Kinase Assay). It is filed as biochemical. The note with it: 10 µM ATP, 60 min, average of two determinations.
The test system of series [2] is A549. Nature of the series: In vitro cytotoxicity, MTT assay, A549. It is filed as cell-based. The note with it: Homo sapiens, A549 cells, 72 h, average of two separate determinations.
Series [3] relates to MCF-7. As to the kind of experiment: In vitro cytotoxicity, MTT assay, MCF-7. It is filed as cell-based. Conditions: Homo sapiens, MCF7; MCF-7 cells, MTT, 72 h; average of two separate determinations; read-out: IC50 (µM) MCF-7. A general note: Tetrazolium dyes change colour on reduction, which living cells bring about.
Series [4] concerns HepG-2. As to the kind of experiment: In vitro cytotoxicity, MTT assay, HepG-2. The class given is cell-based. The note with it: Homo sapiens, HepG2, HepG-2 cells, 72 h, average of two separate determinations.
The subject of series [5] is PC-3. Nature of the series: In vitro cytotoxicity, MTT assay, PC-3. It is filed as cell-based. Conditions: Homo sapiens, PC-3 cells, 72 h, average of two separate determinations.
Series [6] concerns the target PI3Kα (Homo sapiens, UniProt P42336). As to the kind of experiment: PI3Kα kinase assay (Kinase-Glo Luminescent Kinase Assay). It is filed as biochemical. The note with it: 1 µM ATP, 60 min, average of two determinations. (In general: Kinase-Glo measures the ATP left after a reaction by luminescence.)

PI3Kα, sequence (P42336 whole entry): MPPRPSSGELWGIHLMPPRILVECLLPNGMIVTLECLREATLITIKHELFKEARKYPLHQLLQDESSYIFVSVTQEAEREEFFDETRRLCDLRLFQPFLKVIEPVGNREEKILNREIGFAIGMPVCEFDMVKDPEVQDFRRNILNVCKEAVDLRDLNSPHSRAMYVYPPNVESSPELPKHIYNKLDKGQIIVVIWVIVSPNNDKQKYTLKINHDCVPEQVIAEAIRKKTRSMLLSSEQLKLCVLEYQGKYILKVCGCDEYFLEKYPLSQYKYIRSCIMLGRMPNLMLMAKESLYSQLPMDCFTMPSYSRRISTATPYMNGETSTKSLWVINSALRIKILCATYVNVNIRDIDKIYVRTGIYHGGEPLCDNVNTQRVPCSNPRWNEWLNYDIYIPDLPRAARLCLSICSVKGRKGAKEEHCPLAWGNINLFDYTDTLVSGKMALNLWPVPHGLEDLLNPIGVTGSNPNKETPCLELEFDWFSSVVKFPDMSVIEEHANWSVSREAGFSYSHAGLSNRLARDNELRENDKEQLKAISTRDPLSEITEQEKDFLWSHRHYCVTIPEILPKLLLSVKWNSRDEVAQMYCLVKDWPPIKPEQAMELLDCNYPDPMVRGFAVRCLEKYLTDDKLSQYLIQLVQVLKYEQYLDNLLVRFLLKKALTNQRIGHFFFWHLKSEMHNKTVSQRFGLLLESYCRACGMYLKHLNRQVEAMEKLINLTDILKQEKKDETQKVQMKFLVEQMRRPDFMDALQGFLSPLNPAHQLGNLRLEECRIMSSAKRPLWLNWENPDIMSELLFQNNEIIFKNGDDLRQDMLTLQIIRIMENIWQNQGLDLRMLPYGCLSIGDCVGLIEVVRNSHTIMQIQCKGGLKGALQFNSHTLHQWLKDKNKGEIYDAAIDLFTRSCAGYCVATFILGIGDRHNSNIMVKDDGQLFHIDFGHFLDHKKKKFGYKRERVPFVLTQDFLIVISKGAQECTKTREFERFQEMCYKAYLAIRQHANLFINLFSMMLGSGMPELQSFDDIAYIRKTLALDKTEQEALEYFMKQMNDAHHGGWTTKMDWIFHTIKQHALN
PI3Kα, sequence (P27986 whole entry partner): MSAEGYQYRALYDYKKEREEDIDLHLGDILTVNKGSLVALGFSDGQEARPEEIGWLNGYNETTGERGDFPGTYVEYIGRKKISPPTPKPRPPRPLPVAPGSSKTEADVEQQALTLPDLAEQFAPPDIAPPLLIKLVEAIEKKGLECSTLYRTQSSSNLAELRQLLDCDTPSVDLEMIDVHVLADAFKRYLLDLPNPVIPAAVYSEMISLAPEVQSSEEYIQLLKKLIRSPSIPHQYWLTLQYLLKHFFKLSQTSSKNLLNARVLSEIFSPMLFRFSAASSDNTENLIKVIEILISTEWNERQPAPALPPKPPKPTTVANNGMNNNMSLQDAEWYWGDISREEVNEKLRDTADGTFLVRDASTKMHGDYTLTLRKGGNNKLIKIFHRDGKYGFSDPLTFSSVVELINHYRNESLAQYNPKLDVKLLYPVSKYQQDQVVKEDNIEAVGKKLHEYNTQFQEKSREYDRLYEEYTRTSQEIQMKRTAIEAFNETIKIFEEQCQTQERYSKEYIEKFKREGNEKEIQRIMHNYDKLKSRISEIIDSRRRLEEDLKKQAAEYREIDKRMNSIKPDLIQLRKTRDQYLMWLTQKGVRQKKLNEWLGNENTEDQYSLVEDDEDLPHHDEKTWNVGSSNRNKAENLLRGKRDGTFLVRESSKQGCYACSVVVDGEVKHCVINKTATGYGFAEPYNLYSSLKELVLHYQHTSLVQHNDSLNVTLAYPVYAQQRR

In turn, `COc1ccc(Nc2c(NC(=O)NS(=O)(=O)c3ccc(C(C)(C)C)cc3)c(C)nc3ccc(OC)cc23)cc1` [23b, 4-(tert-Butyl)-N-((6-methoxy-4-((4-methoxyphenyl)amino)-2-methylquinolin-3-yl)carbamoyl)benzenesulfonamide] displayed a melting point of 291.2 to 292.7 °C. The IC50 in series [1] is greater than 10 µM. In series [2], this compound showed an IC50 of 7.47 ± 0.87 µM. For the same compound, in series [3], the IC50 was 6.55 ± 0.81 µM. Moreover, the IC50 in series [4] was 2.71 ± 0.43 µM. For the same compound, in series [5], the IC50 is greater than 100 µM. The same compound showed a half-inhibitory concentration (IC50) in series [6] greater than 10 µM.
